“And” between values parts separate entries of the source, which are not always exact repeats. Equal entries are not always repeated.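 How tested: cells in 96-well plates exposed to compound for 48 hours at five concentrations. Here, GI50 denotes the concentration required for 50% inhibition of growth. TGI denotes the concentration required for complete inhibition of growth.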
Legend:
Assay in all cases: NCI-60 cell line screen, 48 h
SN12C renal = tested on: SN12C renal
TK-10 renal = tested on: TK-10 renal
RPMI-8226 leukemia = tested on: RPMI-8226 leukemia
HCT-15 colon = tested on: HCT-15 colon
786-0 renal = tested on: 786-0 renal
SF-539 CNS = tested on: SF-539 CNS
IGROV1 ovarian = tested on: IGROV1 ovarian
DU-145 prostate = tested on: DU-145 prostate
SW-620 colon = tested on: SW-620 colon
CAKI-1 renal = tested on: CAKI-1 renal

Structure (SMILES) | TGI (SN12C renal) | TGI (TK-10 renal) | TGI (RPMI-8226 leukemia) | TGI (HCT-15 colon) | TGI (786-0 renal) | TGI (SF-539 CNS) | TGI (IGROV1 ovarian) | TGI (DU-145 prostate) | GI50 (SN12C renal) | GI50 (TK-10 renal) | GI50 (RPMI-8226 leukemia) | GI50 (SW-620 colon) | TGI (SW-620 colon) | GI50 (HCT-15 colon) | GI50 (786-0 renal) | GI50 (SF-539 CNS) | GI50 (IGROV1 ovarian) | GI50 (DU-145 prostate) | TGI (CAKI-1 renal) | GI50 (CAKI-1 renal)
COc1cc(-c2cc(=O)c3c(O)c(OC)c(OC)c(OC)c3o2)cc(OC)c1OC | > 100 µM | > 57.6 µM | > 100 µM | > 100 µM | 15.6 µM | > 54.9 µM | > 100 µM | > 100 µM |  |  |  |  |  |  |  |  |  |  |  | 
Cn1cc(-c2nc(N[C@@H]3CCCC[C@@H]3N)c(F)c3c2C(=O)NC3)cn1 | > 100 µM | 25.3 µM and 40.6 µM | > 100 µM | > 100 µM | 22.1 µM and > 52.4 µM | 13.9 µM and 16.1 µM | > 68.9 µM | > 100 µM | 3.61 µM and 3.8 µM | 4.5 µM and 6.16 µM | 26.2 µM and 29.1 µM | 4.26 µM and 5 µM | > 100 µM | 12 µM and 13.3 µM | 3.99 µM and 6.36 µM | 2.81 µM and 3.16 µM | 5 µM and 5.65 µM | 11.5 µM and 14.4 µM |  | 
COc1ccc(C)cc1C1CCC(=O)O1 (stereo not drawn) | > 100 µM | > 100 µM | > 100 µM | > 100 µM | > 100 µM | > 100 µM | > 100 µM |  |  |  |  |  | > 100 µM |  |  |  |  |  |  | 
CCc1cc(Cc2ccc(C)c(NC(=O)C(=O)C3C(=O)NC(=O)NC3=O)c2CC)cc(C)c1NC(=O)C(=O)C1C(=O)NC(=O)NC1=O |  | > 100 µM | > 100 µM | > 100 µM | > 100 µM | > 100 µM | > 100 µM |  |  |  |  |  | > 100 µM |  |  |  |  |  | > 100 µM | 
O=C(Cc1ccccc1)NN1C(=O)/C(=C\c2ccccc2O)SC1=Nc1ccccc1 | > 100 µM | > 100 µM | > 100 µM | > 100 µM | > 100 µM | > 100 µM | > 100 µM | > 100 µM |  |  |  |  | > 100 µM |  |  |  |  |  |  | 
O=C1CCC(=O)c2sccc2N1 | > 100 µM | > 100 µM | > 100 µM | > 100 µM | > 100 µM | > 100 µM | > 100 µM |  |  |  |  |  | > 100 µM |  |  |  |  |  | > 100 µM | 
CC(C)(C)Sc1nnc(SC(C)(C)C)c2c(=O)[nH]nc(SC(C)(C)C)c12 | 21.9 µM | 37.8 µM | 12.2 µM | 16.4 µM | 22.3 µM | 22.6 µM | 22 µM |  |  |  |  |  | 20.8 µM |  |  |  |  |  | 16.3 µM | 
CC(=O)Nc1ccc(-c2nnc(SCC(=O)Nc3ccc(Cl)cc3)o2)cc1 | 27.5 µM | 32.4 µM | > 100 µM | 40 µM | 19.6 µM | 30.2 µM | 29.3 µM |  |  |  |  |  | 29.8 µM |  |  |  |  |  | 33.7 µM | 
O=C(c1ccc2ccccc2c1)c1c(C(F)(F)F)n([O-])c2ccc(F)cc2[n+]1=O | 2.74 µM | 3.02 µM | 3.93 µM | 1.26 µM | 3.01 µM | 3.32 µM |  | 3.12 µM | 1.29 µM | 1.58 µM | 0.997 µM | 1.5 µM | 3.2 µM | 0.354 µM | 1.57 µM | 1.88 µM |  | 1.68 µM |  | 
CC(C)N1C(C)[C@@H](c2ccccc2)O[P@]1(=O)CC1=CCCCC1 (stereo partly drawn) | > 100 µM | > 100 µM | > 100 µM | > 100 µM | > 100 µM | > 100 µM | > 100 µM |  |  |  |  |  | > 100 µM |  |  |  |  |  |  | 
S=c1c2ccccc2c(=S)n2n1CC=CC2 | > 100 µM | > 100 µM | > 100 µM | > 100 µM | > 100 µM | > 100 µM | > 100 µM |  |  |  |  |  | > 100 µM |  |  |  |  |  | > 100 µM | 
COC(=O)C(=O)C(C(=O)C(=O)Nc1cc(Cl)c(Cl)cc1Cl)c1nc2ccc([N+](=O)[O-])cc2[nH]c1=O (stereo not drawn) | > 100 µM | > 100 µM | > 100 µM | > 100 µM | > 100 µM | > 100 µM | > 100 µM |  |  |  |  |  | > 100 µM |  |  |  |  |  | > 100 µM | 
CNC(c1ccncc1)C(NC)c1ccncc1 (stereo not drawn) | > 100 µM | > 100 µM | > 100 µM | > 100 µM | > 100 µM |  | > 100 µM | > 100 µM |  |  |  |  | > 100 µM |  |  |  |  |  | > 100 µM | 
O=c1c2ccccc2nc(-c2ccccc2)n1NC(=S)Nc1cccc(Cl)c1 | > 100 µM | > 100 µM | > 100 µM | > 100 µM | > 100 µM | > 100 µM | > 100 µM |  |  |  |  |  | > 100 µM |  |  |  |  |  | > 100 µM | 
C/C(CC(=O)Nc1cccc([N+](=O)[O-])c1)=N\NC(=O)CC#N |  | > 100 µM | > 100 µM |  | > 100 µM | > 100 µM | > 100 µM |  |  |  |  |  | > 100 µM |  |  |  |  |  |  | 
O=CCCCC(Sc1ccccc1)Sc1ccccc1 | 56.7 µM | > 100 µM | 48.6 µM | 33.2 µM | 46 µM |  | 50.5 µM |  |  |  |  |  | 23.6 µM |  |  |  |  |  | > 100 µM | 
C#CCOCn1cnc2ncnc(N)c21 | > 100 µM | > 100 µM | > 100 µM |  | > 100 µM | > 100 µM | > 100 µM |  |  |  |  |  | > 100 µM |  |  |  |  |  | > 100 µM | 
COc1ccc2c([nH]c3c(O)c(-c4c(C)cc5c([nH]c6c(CC=C(C)C)c(OC)ccc65)c4O)c(C)cc32)c1CC=C(C)C | > 100 µM | > 100 µM | > 100 µM | > 100 µM | > 100 µM | > 100 µM | > 100 µM |  |  |  |  |  | > 100 µM |  |  |  |  |  | > 100 µM | 
CCOC(=O)CC(NC(=O)c1ccc(N=NN(C)C)cc1)C(=O)OCC (stereo not drawn) | > 100 µM | > 100 µM | > 100 µM | > 100 µM | > 100 µM | > 100 µM | > 100 µM |  |  |  |  |  | > 100 µM |  |  |  |  |  | > 100 µM | 
CC(=O)[C-](C(C)=O)c1ccccc1.CC(=O)[C-](C(C)=O)c1ccccc1.CC(=O)[C-](C(C)=O)c1ccccc1.[Cl-].[Zr+4] | > 100 µM | > 100 µM | > 100 µM | > 100 µM | > 100 µM | > 100 µM | > 100 µM |  | > 100 µM | > 100 µM | > 100 µM | > 100 µM | > 100 µM | > 100 µM | 38.7 µM | 86.7 µM | > 100 µM |  | > 100 µM | > 100 µM
CC(=O)c1c2c(cc3c1CC1(C3)Cc3cc4c(c(C(=O)O)c3C1)CCC4)CCC2 (stereo not drawn) | > 100 µM | > 100 µM |  |  | > 100 µM | 59.6 µM | > 100 µM |  |  |  |  |  | > 100 µM |  |  |  |  |  | > 100 µM | 

— PubChem BioAssay (NCI)
